This is an account of results in patent US20230365625A1, “METHODS FOR TREATING AND/OR PREVENTING UNDESIRABLE SEQULAE OF NASAL TURBINOPLASTY OR FUNCTIONAL ENDOSCOPIC SINUS SURGERY” (3-D Matrix, Ltd., priority 2022, published 2023).

Data set [1] concerns nasal mucosal injuries on the middle turbinate and opposing nasal septum. Nature of the data set: Intra-operative time to hemostasis, sheep endoscopic nasal surgery model. The data set is classed as in vivo, Merino sheep. On the procedure:
Surgical Methods—On the day prior to surgery, the animals were weighed, and each nostril was randomly assigned by computer randomization to receive PuraSinus, FLOSEAL or no treatment to each nostril after the surgical turbinoplasty. Each animal had food withheld for 24 hours and water withheld for 8 to 12 hours prior to the day of surgery as per the standard anesthetic procedure. The animals were sedated with a weight adjusted dose of intravenous diazepam. Following sedation, a percutaneous jugular catheter was inserted and secured, with induction achieved by further weight adjusted doses of intravenous diazepam and ketamine. The animals were placed in sternal recumbency for insertion of a size-appropriate endotracheal tube. Anesthesia was maintained through inhaled 1-2% isofluorane with parenteral propofol and ketamine given when necessary. Each animal was then given a prophylactic dose of long-acting antibiotic, weight adjusted oxytetracycline to cover for postoperative infections. The nasal cavity was prepared by packing with surgical pledgets soaked in 1% lignocaine and phenylephrine mixture. The middle turbinate was infiltrated with the same lignocaine/phenylephrine mixture via a small gauge needle in numerous sites over the middle turbinate. The use of vasoconstrictors and decongestants such as lignocaine and phenylephrine both topically and injected locally is standard pre-operatively in patients undergoing turbinoplasty (Ahmed S. et al., J. Coll. Physicians Surg. Pak. 26(6): 531-2 (2016)) The animals' vital signs were monitored throughout the procedure.
Prior to making incisions, all sheep were first examined under endoscope to screen for any nasal septum deviations. Only animals that had straight septum and uniform space between septum and middle turbinate were used. […]
Intraoperative observations—The degree of bleeding/hemostasis was assessed by an independent observer who was blinded to the appearance of FLOSEAL and PuraSinus (SEQ ID NO:1), and to the background of these two hemostatic agents. […]

Data set [2] can be described thus: pH of the supplied solution. The data set is classed as physicochemical. As to conditions: 2.5% weight/volume solution in water. The source says:
Details of the Sheep Study—Endoscopic nasal surgery targeting the turbinates and sinuses has become a cornerstone in managing chronic rhinosinusitis. A sheep model was chosen to test treatment of an endoscopic surgical wound deep in the sinuses with PuraSinus (RADA16-I; (SEQ ID NO:1) 2.5% in water) compared to controls as a model for […] in humans both due to the size of the animals and the suitability of the sheep model for comparison with this kind of surgery in humans as described below. PuraSinus (ARTG: 267486; (SEQ ID NO:1)) was supplied by 3-D Matrix Europe SAS as a 2.5% weight/volume solution of synthetic SAPs in water having a pH of about 2.3. Upon contact with physiologic tissue and/or liquid like blood, the pH and/or ionic strength of PuraSinus (SEQ ID NO:1) increases, triggering the self-assembly of the peptides into nanofibers, forming a beta-sheet network similar to an extracellular matrix. At a macroscopic level, the viscous solution forms a hydrogel that seals the opened vessels resulting in hemostasis. PuraSinus (SEQ ID NO:1) is biocompatible and free from infectious agents and is resorbed over time although some residue may remain for ≥30 days. It is supplied sterile in a syringe and delivered through a nozzle supplied by the manufacturer. It is stored at 2-8° C. […]

The conditions of data set [3]: 2.5% in water; cited from earlier work.
For data set [4] the following is noted: 1% in water; cited from earlier work.
The conditions of data set [5]: in solution before DMEM; RADA16 assumed 2.5% wt/vol, IEIK13 concentration unknown; cited from earlier work.
Data set [6] deals with gastrointestinal endoscopic procedures and cardiovascular surgery. As to conditions: 2.5% w/v in water, topical hemostat; cited from earlier work.
For data set [7], the system named is punch hole injuries to the liver. The settings on record: pig, in vivo; cited from earlier work.

Where “and” joins values, the source holds several entries; their conditions need not be identical. Equal values may be shown once. Entries after “also recorded” stand apart in the source; their conditions may differ.

`CC(=O)N[C@@H](CCCNC(=N)N)C(=O)N[C@@H](C)C(=O)N[C@@H](CC(=O)O)C(=O)N[C@@H](C)C(=O)N[C@@H](CCCNC(=N)N)C(=O)N[C@@H](C)C(=O)N[C@@H](CC(=O)O)C(=O)N[C@@H](C)C(=O)N[C@@H](CCCNC(=N)N)C(=O)N[C@@H](C)C(=O)N[C@@H](CC(=O)O)C(=O)N[C@@H](C)C(=O)N[C@@H](CCCNC(=N)N)C(=O)N[C@@H](C)C(=O)N[C@@H](CC(=O)O)C(=O)N[C@@H](C)C(N)=O` [PuraSinus, Ac-RADARADARADARADA-NH2]: the “Time to hemostasis” value in data set [1] (individual surgical site (sheep number, nostril), listed as P) was 120 sec and 102 sec and 125 sec and 130 sec (3×) and 140 sec and 150 sec (2×) and 70 sec and 220 sec and 85 sec and 180 sec and 190 sec and 210 sec and 95 sec and 290 sec and 58 sec and 131 sec and 87 sec. Further, in data set [1] (sheep, mean±SD, 20 sites per group), the Intra-operative hemostasis time was found to be 139.7 ± 56.2 s. Further, the “Hemostasis compared to untreated control” value in data set [1] (sheep, result in words) is listed as “statistically significant reduction in time to hemostasis; also recorded: improved hemostasis”. For the same compound, the pH result in data set [2] is reported as “about 2.3”. In data set [3], the “Storage modulus G′” value is given as “about 350 Pa”. In data set [4], the “Increase in storage modulus G′ after DMEM treatment relative to before” value is recorded as 43.5 fold. Also, in data set [5], the “Median loss modulus G″” value is reported as 24 Pa and the “Median storage modulus G′” value is recorded as 384 Pa. In data set [6], the Successful hemostasis rates is reported as 72.6-100%. For the same compound, in data set [7], the “Inflammatory cell infiltration due to the gel in the wound” value was “absence if inflammatory cell infiltration”.
